From ChEMBL document CHEMBL5712891, “Inhibition of BET bromodomain-dependent XIAP and FLIP expression sensitizes KRAS-mutated NSCLC to pro-apoptotic agents” (Cell Death Dis, 2016)
Active and inactive are the calls of the source. The rule behind the calls is not given here.

How the values were obtained:
A549 [1] = experiment: Induction of apoptosis in human A549 cells assessed as late apoptotic cells at 0.5 uM for 24 hrs by annexin V-PI staining based flow cytometric analysis (reference value: 1.2%); assay type: functional
A549 [2] = experiment: Induction of apoptosis in human A549 cells assessed as necrotic cells at 2.5 uM for 24 hrs by annexin V-PI staining based flow cytometric analysis (reference value: 0.9%); assay type: functional
DV-90 [3] = experiment: Induction of cell cycle arrest in human DV-90 cells assessed as accumulation of cells at G2/M phase at 0.25 uM for 24 hrs by Click-iT EdU Alexa Fluor 647 flow cytometric assay kit analysis (reference value: 21%); assay type: functional
NCI-H460 [4] = experiment: Induction of apoptosis in human NCI-H460 cells assessed as necrotic cells at 2.5 uM for 24 hrs by annexin V-PI staining based flow cytometric analysis (reference value: 3.2%); assay type: functional
DV-90 [5] = experiment: Induction of apoptosis in human DV-90 cells assessed as necrotic cells at 0.5 uM for 48 hrs by annexin V-PI staining based flow cytometric analysis (reference value: 8.4%)
DV-90 [6] = experiment: Induction of cell cycle arrest in human DV-90 cells assessed as accumulation of cells at G2/M phase at 0.1 uM for 24 hrs by Click-iT EdU Alexa Fluor 647 flow cytometric assay kit analysis (reference value: 21%); assay type: functional
A549 [7] = experiment: Induction of apoptosis in human A549 cells assessed as late apoptotic cells at 2.5 uM for 24 hrs by annexin V-PI staining based flow cytometric analysis (reference value: 1.2%); assay type: functional
NCI-H460 [8] = experiment: Induction of cell cycle arrest in human NCI-H460 cells assessed as accumulation of cells at S phase at 1 uM for 24 hrs by Click-iT EdU Alexa Fluor 647 flow cytometric assay kit analysis (reference value: 54%); assay type: functional
NCI-H460 [9] = experiment: Induction of cell cycle arrest in human NCI-H460 cells assessed as accumulation of cells at G0/G1 phase at 1 uM for 24 hrs by Click-iT EdU Alexa Fluor 647 flow cytometric assay kit analysis (reference value: 45%); assay type: functional
DV-90 [10] = experiment: Induction of cell cycle arrest in human DV-90 cells assessed as accumulation of cells at G2/M phase at 0.5 uM for 24 hrs by Click-iT EdU Alexa Fluor 647 flow cytometric assay kit analysis (reference value: 25%); assay type: functional
NCI-H1373 [11] = experiment: Induction of cell cycle arrest in human NCI-H1373 cells assessed as accumulation of cells at G0/G1 phase at 0.5 uM for 24 hrs by Click-iT EdU Alexa Fluor 647 flow cytometric assay kit analysis (reference value: 48%); assay type: functional
A549 [12] = experiment: Induction of cell cycle arrest in human A549 cells assessed as accumulation of cells at S phase at 0.25 uM for 24 hrs by Click-iT EdU Alexa Fluor 647 flow cytometric assay kit analysis (reference value: 35%); assay type: functional
A549 [13] = experiment: Induction of cell cycle arrest in human A549 cells assessed as accumulation of cells at G0/G1 phase at 0.5 uM for 24 hrs by Click-iT EdU Alexa Fluor 647 flow cytometric assay kit analysis (reference value: 61%); assay type: functional
NCI-H1373 [14] = experiment: Induction of apoptosis in human NCI-H1373 cells assessed as viable cells at 2.5 uM for 24 hrs by annexin V-PI staining based flow cytometric analysis (reference value: 77.7%); assay type: functional; settings: read-out: Activity
DV-90 [15] = experiment: Induction of cell cycle arrest in human DV-90 cells assessed as accumulation of cells at G0/G1 phase at 1 uM for 24 hrs by Click-iT EdU Alexa Fluor 647 flow cytometric assay kit analysis (reference value: 44%); assay type: functional
NCI-H1792 [16] = experiment: Downregulation of XIAP mRNA expression level in human NCI-H1792 cells at 0.1 to 1 uM for 24 hrs by qRT-PCR analysis; assay type: functional, cell-based; settings: dose 0.1-1 µM
NCI-H2347 = experiment: Downregulation of c-MYC protein expression level in human NCI-H2347 cells at 1 uM for 24 hrs by […] analysis; assay type: functional, cell-based
A549 [17] = experiment: Induction of cell cycle arrest in human A549 cells assessed as accumulation of cells at S phase at 1 uM for 24 hrs by Click-iT EdU Alexa Fluor 647 flow cytometric assay kit analysis (reference value: 35%); assay type: functional
NCI-H1373 [18] = experiment: Induction of TRAIL dependent apoptosis in human NCI-H1373 cells assessed as necrotic cells at 1 uM in presence of […] by annexin V-PI staining based flow cytometric analysis (reference value: 3.6%); assay type: functional
NCI-H1373 [19] = experiment: Downregulation of c-MYC mRNA expression level in human NCI-H1373 cells at 0.1 to 1 uM for 24 hrs by qRT-PCR analysis; assay type: functional, cell-based; settings: dose 0.1-1 µM
NCI-H1373 [20] = experiment: Downregulation of c-MYC protein level in human NCI-H1373 cells 1 uM by Western blot analysis; assay type: functional, cell-based; settings: time <= 24.0 hrs, TDE = time-dependent effect
NCI-H1373 [21] = experiment: Induction of cell cycle arrest in human NCI-H1373 cells assessed as accumulation of cells at S phase at 0.25 uM for 24 hrs by Click-iT EdU Alexa Fluor 647 flow cytometric assay kit analysis (reference value: 45%); assay type: functional
NCI-H2030 = experiment: Antiproliferative activity against human NCI-H2030 cells at 500 to 2500 nM in presence of TNF by cell titre glo assay; assay type: functional, cell-based; settings: dose 500-2500 nM
NCI-H1373 [22] = experiment: Induction of TRAIL dependent apoptosis in human NCI-H1373 cells assessed as late apoptotic cells at 1 uM by annexin V-PI staining based flow cytometric analysis (reference value: 8.3%); assay type: functional
DV-90 [23] = experiment: Induction of cell cycle arrest in human DV-90 cells assessed as accumulation of cells at G2/M phase at 0.25 uM for 24 hrs by Click-iT EdU Alexa Fluor 647 flow cytometric assay kit analysis (reference value: 24%); assay type: functional
SK-LU-1 [24] = experiment: Downregulation of c-MYC protein expression level in human SK-LU-1 cells at 1 uM for 24 hrs by […] analysis; assay type: functional, cell-based
A549 [25] = experiment: Induction of apoptosis in human A549 cells assessed as viable cells at 2.5 uM for 24 hrs by annexin V-PI staining based flow cytometric analysis (reference value: 96%); assay type: functional; settings: read-out: Activity
NCI-H460 [26] = experiment: Induction of apoptosis in human NCI-H460 cells assessed as necrotic cells at 0.5 uM for 24 hrs by annexin V-PI staining based flow cytometric analysis (reference value: 2.7%); assay type: functional
DV-90 [27] = experiment: Downregulation of XIAP mRNA expression level in human DV-90 cells at 0.1 to 1 uM for 24 hrs by qRT-PCR analysis; assay type: functional, cell-based; settings: dose 0.1-1 µM
SK-LU-1 [28] = experiment: Downregulation of XIAP mRNA expression level in human SK-LU-1 cells at 0.1 to 1 uM for 24 hrs by qRT-PCR analysis; assay type: functional, cell-based; settings: dose 0.1-1 µM
NCI-H1792 [29] = experiment: Downregulation of FLIP mRNA expression level in human NCI-H1792 cells at 0.1 to 1 uM for 24 hrs by qRT-PCR analysis; assay type: functional, cell-based; settings: dose 0.1-1 µM
A549 [30] = experiment: Induction of cell cycle arrest in human A549 cells assessed as accumulation of cells at G0/G1 phase at 0.1 uM for 24 hrs by Click-iT EdU Alexa Fluor 647 flow cytometric assay kit analysis (reference value: 61%); assay type: functional

## Cc1sc2c(c1C)C(c1ccc(Cl)cc1)=N[C@@H](CC(=O)Nc1ccc(O)cc1)c1nnc(C)n1-2 [BIRABRESIB]
A549 [1]
  Activity: 1.1%
A549 [2]
  Activity: 1.1%
DV-90 [3]
  Activity: 26%
NCI-H460 [4]
  Activity: 3.9%
DV-90 [5]
  Activity: 27.6%
DV-90 [6]
  Activity: 29%
A549 [7]
  Activity: 1.5%

## CCNC(=O)C[C@@H]1N=C(c2ccc(Cl)cc2)c2cc(OC)ccc2-n2c(C)nnc21 [MOLIBRESIB]
NCI-H460 [8]
  Activity: 47%
NCI-H460 [9]
  Activity: 52%
DV-90 [10]
  Activity: 30%
NCI-H1373 [11]
  Activity: 73%

## Cc1sc2c(c1C)C(c1ccc(Cl)cc1)=N[C@@H](CC(=O)OC(C)(C)C)c1nnc(C)n1-2
A549 [12]
  Activity: 33%
A549 [13]
  Activity: 63%
NCI-H1373 [14]
  viability at 2.5 µM: 58%
DV-90 [15]
  Activity: 56%
NCI-H1792 [16]
  Activity: Active
NCI-H2347
  Activity: Active
A549 [17]
  Activity: 32%
NCI-H1373 [18]
  Activity: 40.2%
NCI-H1373 [19]
  Activity: Active
NCI-H1373 [20]
  Activity: Tde
NCI-H1373 [21]
  Activity: 21%
NCI-H2030
  Activity: Active
NCI-H1373 [22]
  Activity: 14%
DV-90 [23]
  Activity: 31%
SK-LU-1 [24]
  Activity: Active
A549 [25]
  viability at 2.5 µM: 97%
NCI-H460 [26]
  Activity: 4%
DV-90 [27]
  Activity: Active
SK-LU-1 [28]
  Activity: Active
NCI-H1792 [29]
  Activity: Active
A549 [30]
  Activity: 61%
